Patent US6914045B2, “Glycopeptide antibiotics” (Wyeth Holdings Corporation, priority 2001, dated 2005)
≈ marks a conversion by molar mass, not a printed value.

Assays:
[1] = anatomic pathology (histopathology of heart and kidney) in mice; type: in vivo; conditions: CD-1 mice, 20 mg/kg intravenously daily for 9 days, necropsy day 10, microscopic histopathology
Method: Samples of tissues from necropsied mice were formalin-fixed, paraffin-embedded, sectioned, stained with hematoxylin and eosin, and examined microscopically. Histopathologic findings were recorded. These findings were subjectively graded on a scale corresponding to slight, mild, moderate, marked and severe as compared to untreated controls.

[2] = system: Escherichia coli; test: in vitro antibacterial evaluation, MIC by broth dilution; type: cell-based; conditions: 18 hours at 35° C.
[3] = system: Staphylococcus sp.; test: as above; type: cell-based; conditions: broth dilution, 18 hours at 35° C.
Procedure, shortened: (§1)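 Read-out: the lowest concentration at which the test strain fails to grow. Serial dilutions (64-0.06 μg/mL) in Muller-Hinton II […], 5×10^5 CFU/mL inoculum, NCCLS M7-A2 procedure.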

[4] = system: Streptococcus sp.; test: as above; type: cell-based; conditions: broth dilution, 18 hours at 35° C.
Procedure, shortened: as §1

[5] = system: Enterococcus sp.; test: as above; type: cell-based; conditions: broth dilution, 18 hours at 35° C.
Procedure, shortened: as §1

[6] = system: Staphylococcus aureus-SMITH (GC 4543); test: acute lethal infection in mice; type: in vivo; conditions: acute lethal infection, female CD-1 mice, intraperitoneal challenge, intravenous 30 min. after infection, 7 day survival
Procedure, shortened: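 Protocol: bacteria suspended in trypticase soy broth or hog gastric mucin injected ip into female CD-1 mice at a level killing untreated controls in 24-48 hr; compound given iv in saline or 5% dextrose 30 min post-challenge; five mice per dose; ED50 derived from pooled 7 day survival of three runs.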

Structure (SMILES): CC(C1CCCCC1)C1NC(=O)CNC(=O)C(CO)NC(=O)C(C(O)C2CNC(=N)N2C2OC(CO)C(O)C(O)C2O)NC(=O)C(C(O)C2CNC(=N)N2)NC(=O)C(Cc2ccc(OC3OC(CO)C(OC4OC5COC6(OC5C(O)C4O)C4CC5CC(C4)CC6C5)C(O)C3O)cc2)NC1=O (stereo not drawn) [Example 221, Cyclo[3-cyclohexyl-2-aminobutanoyl-O-[4-O-[4,6-O-(2-adamantylidene)hexopyranosyl]hexopyranosyl]tyrosyl-3-(2-iminoimidazolidin-4-yl)seryl-3-(3-hexopyranosyl-2-iminoimidazolidin-4-yl)serylserylglycyl]]
- Anatomical Pathology (Day 10), Heart [1]: 0
- Anatomical Pathology (Day 10), Kidney [1]: 0
- MIC Escherichia coli (ATCC 25922) [2]: 64 µg/mL (≈ 44.6 µM)
- MIC Escherichia coli (GC 4559) [2]: 32 µg/mL (≈ 22.3 µM)
- MIC Escherichia coli (GC 4560) [2]: 2 µg/mL (≈ 1.4 µM)
- MIC Staphylococcus aureus (ATCC 29213) ([3]; strain ATCC 29213): 1 µg/mL (≈ 0.698 µM)
- MIC Staphylococcus aureus (GC 1131) ([3]; strain GC 1131): 2 µg/mL (≈ 1.4 µM)
- MIC Staphylococcus aureus (GC 3051) ([3]; strain GC 3051): 2 µg/mL (≈ 1.4 µM)
- MIC Staphylococcus aureus (GC 3053) ([3]; strain GC 3053): 1 µg/mL (≈ 0.698 µM)
- MIC Staphylococcus aureus (GC 4541) ([3]; strain GC 4541): 2 µg/mL (≈ 1.4 µM)
- MIC Staphylococcus aureus (GC 4542) ([3]; strain GC 4542): 2 µg/mL (≈ 1.4 µM)
- MIC Staphylococcus aureus-SMITH (GC 4543) ([3]; strain GC 4543): 2 µg/mL (≈ 1.4 µM)
- MIC Staphylococcus aureus (GC 4544) ([3]; strain GC 4544): 2 µg/mL (≈ 1.4 µM)
- MIC Staphylococcus aureus (GC 4545) ([3]; strain GC 4545): 2 µg/mL (≈ 1.4 µM)
- MIC Staphylococcus haemolyticus (GC 4546) ([3]; strain GC 4546): 2 µg/mL (≈ 1.4 µM)
- MIC Coagulase Negative Staphylococcus (GC 4547) ([3]; strain GC 4547): 2 µg/mL (≈ 1.4 µM)
- MIC Coagulase Negative Staphylococcus (GC 4548) ([3]; strain GC 4548): 1 µg/mL (≈ 0.698 µM)
- MIC Coagulase Negative Staphylococcus (GC 4549) ([3]; strain GC 4549): 1 µg/mL (≈ 0.698 µM)
- MIC Coagulase Negative Staphylococcus (GC 4551) ([3]; strain GC 4551): 2 µg/mL (≈ 1.4 µM)
- MIC Streptococcus agalactiae (GC 4564) [4]: <0.12 µg/mL
- MIC Streptococcus pneumoniae (ATCC 6301) [4]: <0.12 µg/mL
- MIC Streptococcus pneumoniae (GC 1894) [4]: <0.12 µg/mL
- MIC Streptococcus pneumoniae (GC 4565) [4]: <0.12 µg/mL
- MIC Streptococcus pyogenes (GC 4563) [4]: <0.12 µg/mL
- MIC Streptococcus pneumoniae (ATCC 6301) ([4]; inoculum 5×10^5 CFU/mL, strain ATCC 6301): <0.12 µg/mL
- MIC Streptococcus pneumoniae (GC 1894) ([4]; inoculum 5×10^5 CFU/mL, strain GC 1894): <0.12 µg/mL
- MIC Streptococcus pyogenes (GC 4563) ([4]; inoculum 5×10^5 CFU/mL, strain GC 4563): <0.12 µg/mL
- MIC Streptococcus agalactiae (GC 4564) ([4]; inoculum 5×10^5 CFU/mL, strain GC 4564): <0.12 µg/mL
- MIC Streptococcus pneumoniae (GC 4565) ([4]; inoculum 5×10^5 CFU/mL, strain GC 4565): <0.12 µg/mL
- MIC Enterococcus avium (GC 4558) [5]: 2 µg/mL (≈ 1.4 µM)
- MIC Enterococcus faecalis (ATCC 29212) [5]: 2 µg/mL (≈ 1.4 µM)
- MIC Enterococcus faecalis (GC 2242) [5]: 2 µg/mL (≈ 1.4 µM)
- MIC Enterococcus faecalis (GC 2691) [5]: 2 µg/mL (≈ 1.4 µM)
- MIC Enterococcus faecalis (GC 3059) [5]: 1 µg/mL (≈ 0.698 µM)
- MIC Enterococcus faecalis (GC 4552) [5]: 2 µg/mL (≈ 1.4 µM)
- MIC Enterococcus faecalis (GC 4553) [5]: 2 µg/mL (≈ 1.4 µM)
- MIC Enterococcus faecalis (GC 4554) [5]: 2 µg/mL (≈ 1.4 µM)
- MIC Enterococcus faecalis (GC 6189) [5]: 1 µg/mL (≈ 0.698 µM)
- MIC Enterococcus faecium (GC 2243) [5]: 2 µg/mL (≈ 1.4 µM)
- MIC Enterococcus faecium (GC 4556) [5]: 2 µg/mL (≈ 1.4 µM)
- MIC Enterococcus faecium (GC 4557) [5]: 1 µg/mL (≈ 0.698 µM)
- MIC Enterococcus faecalis (ATCC 29212) ([5]; inoculum 5×10^5 CFU/mL, strain ATCC 29212): 2 µg/mL (≈ 1.4 µM)
- MIC Enterococcus faecalis (GC 2242) ([5]; inoculum 5×10^5 CFU/mL, strain GC 2242): 2 µg/mL (≈ 1.4 µM)
- MIC Enterococcus faecium (GC 2243) ([5]; inoculum 5×10^5 CFU/mL, strain GC 2243): 2 µg/mL (≈ 1.4 µM)
- MIC Enterococcus faecalis (GC 2691) ([5]; inoculum 5×10^5 CFU/mL, strain GC 2691): 2 µg/mL (≈ 1.4 µM)
- MIC Enterococcus faecalis (GC 3059) ([5]; inoculum 5×10^5 CFU/mL, strain GC 3059): 1 µg/mL (≈ 0.698 µM)
- MIC Enterococcus faecalis (GC 4552) ([5]; inoculum 5×10^5 CFU/mL, strain GC 4552): 2 µg/mL (≈ 1.4 µM)
- MIC Enterococcus faecalis (GC 4553) ([5]; inoculum 5×10^5 CFU/mL, strain GC 4553): 2 µg/mL (≈ 1.4 µM)
- MIC Enterococcus faecalis (GC 4554) ([5]; inoculum 5×10^5 CFU/mL, strain GC 4554): 2 µg/mL (≈ 1.4 µM)
- MIC Enterococcus faecium (GC 4556) ([5]; inoculum 5×10^5 CFU/mL, strain GC 4556): 2 µg/mL (≈ 1.4 µM)
- MIC Enterococcus faecium (GC 4557) ([5]; inoculum 5×10^5 CFU/mL, strain GC 4557): 1 µg/mL (≈ 0.698 µM)
- MIC Enterococcus avium (GC 4558) ([5]; inoculum 5×10^5 CFU/mL, strain GC 4558): 2 µg/mL (≈ 1.4 µM)
- MIC Enterococcus faecalis (GC 6189) ([5]; inoculum 5×10^5 CFU/mL, strain GC 6189): 1 µg/mL (≈ 0.698 µM)
- median effective dose (ED50), Staphylococcus aureus-SMITH (GC 4543) [6]: 0.03 mg/kg
